Results reported in US11648254B2 (Kumquat Biosciences Inc., priority 2021, dated 2023).
Like-named read-outs stand apart in the source and are kept apart here.

Target: SOS1 (Homo sapiens (Human), UniProt Q07889)
Experiment: Ras-SOS interaction assay (HTRF)
Format: biochemical
Source text: The ability of any compound of the present disclosure to reduce a Ras protein signaling output by, e.g., interfering or disrupting interaction (or binding) between SOS1 and a Ras protein can be assessed in vitro. For example, the equilibrium interaction of human SOS1 (hSOS1) with human wildtype Kras or K-Ras mutant (e.g., hK-Ras G12C mutant, or hK-RasG12C) can be assessed as a proxy or an indication for a subject compound's ability to inhibit SOS. Detection of such interaction is achieved by measuring homogenous time-resolved fluorescence resonance energy transfer (HTRF) from (i) a fluorescence resonance energy transfer (FRET) donor (e.g., antiGST-Europium) that is bound to GST-tagged K-RasG12C to (ii) a FRET acceptor (e.g., anti-6His-XL665) bound to a His-tagged hSOS1.
The assay buffer can contain 5 mM HEPES pH 7.4, 150 mM NaCl, 10 mM EDTA, 1 mM DTT, 0.05% BSA, 0.0025% (v/v) Igepal and 100 mM KF. A Ras working solution is prepared in assay buffer containing typically 10 nM of the protein construct (e.g., GST-tagged hK-RasG12C) and 2 nM of the FRET donor (e.g., antiGST-Eu(K) from Cisbio, France). A SOS1 working solution is prepared in assay buffer containing typically 10 nM of the protein construct (e.g., His-hSOS1) and 10 nM of the FRET acceptor (e.g., anti-6His-XL665 from Cisbio, France). An inhibitor control solution is prepared in assay buffer containing 10 nM of the FRET acceptor without the SOS1 protein.
A fixed reaction mixture with or without test compound is transferred into a 384-well plate. Ras working solution is added to all wells of the test plate. SOS1 working solution is added to all wells except for those that are subsequently filled the inhibitor control solution. After approximately 60 min incubation, the fluorescence is measured with a M1000Pro plate reader (Tecan) using HTRF detection (excitation 337 nm, emission 1: 620 nm, emission 2: 665 nm). Compounds are tested in duplicates at different concentrations (for example, 10 μM, 2.5 μM, 0.63 μM, 0.16 μM, 0.04 μM, 0.01 μM test compound). The ratiometric data (i.e., emission 2 divided by emission 1) is used to calculate IC50 values against SOS1 using GraphPad Prism (GraphPad software).

[1] = K-RasG13D utilized, read-out: IC50 inhibition of SOS
[2] = K-RasG13D, read-out: IC50 value against SOS1

SOS1, sequence (Q07889 564-1049): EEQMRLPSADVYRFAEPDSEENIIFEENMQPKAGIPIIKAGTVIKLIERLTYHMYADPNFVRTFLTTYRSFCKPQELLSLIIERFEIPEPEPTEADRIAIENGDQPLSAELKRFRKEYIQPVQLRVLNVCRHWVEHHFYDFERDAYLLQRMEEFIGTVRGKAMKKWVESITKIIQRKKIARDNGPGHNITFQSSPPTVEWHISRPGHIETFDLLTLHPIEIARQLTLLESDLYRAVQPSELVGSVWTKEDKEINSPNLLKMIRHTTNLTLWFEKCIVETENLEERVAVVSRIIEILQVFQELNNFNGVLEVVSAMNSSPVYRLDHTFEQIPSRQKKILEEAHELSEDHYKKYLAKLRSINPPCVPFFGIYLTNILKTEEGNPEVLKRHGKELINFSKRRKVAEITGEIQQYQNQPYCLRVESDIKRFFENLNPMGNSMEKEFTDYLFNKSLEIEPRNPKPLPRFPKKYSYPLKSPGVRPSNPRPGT

| SMILES | IC50 [1] [nM] | IC50 [2] [nM] |
| --- | --- | --- |
| COc1nc2nc(C)nc(N[C@H](C)c3cccc(C)c3F)c2cc1[C@H]1C[C@@H](N)C1 [Compound 111, 6-((1s,3S)-3-aminocyclobutyl)-N-((R)-1-(2-fluoro-3-methylphenyl)ethyl)-7-methoxy-2-methylpyrido[2,3-d]pyrimidin-4-amine] | 100 to 1000 | – |
| COc1nc2nc(C)nc(N[C@H](C)c3cccc(C(F)F)c3F)c2cc1C1(C#N)CCN(Cc2ccccc2)CC1 [Compound 140, (R)-1-benzyl-4-(4-((1-(3-(difluoromethyl)-2-fluorophenyl)ethyl)amino)-7-methoxy-2-methylpyrido[2,3-d]pyrimidin-6-yl)piperidine-4-carbonitrile] | 100 to 1000 | – |
| COc1nc2nc(C)nc(N[C@H](C)c3cc(F)cc(C(F)F)c3F)c2cc1C1CCS(=O)(=O)CC1 [Compound 144, (R)-4-(4-((1-(3-(difluoromethyl)-2,5-difluorophenyl)ethyl)amino)-7-methoxy-2-methylpyrido[2,3-d]pyrimidin-6-yl)tetrahydro-2H-thiopyran 1,1-dioxide] | 100 to 1000 | – |
| Cc1nc(N[C@H](C)c2cccc(C(F)F)c2F)c2cc(C3(C(F)F)CC3)c(OC3COC3)nc2n1 [Compound 186, (R)—N-(1-(3-(difluoromethyl)-2-fluorophenyl)ethyl)-6-(1-(difluoromethyl)cyclopropyl)-2-methyl-7-(oxetan-3-yloxy)pyrido[2,3-d]pyrimidin-4-amine] | < 100 | – |
| Cc1nc(N[C@H](C)c2cccc(C(F)F)c2F)c2cc(C3(C#N)CC3)c(NC3COC3)nc2n1 [Compound 225, (R)-1-(4-((1-(3-(difluoromethyl)-2-fluorophenyl)ethyl)amino)-2-methyl-7-(oxetan-3-ylamino)pyrido[2,3-d]pyrimidin-6-yl)cyclopropane-1-carbonitrile] | 100 to 1000 | – |
| Cc1nc(N[C@H](C)c2cccc(C(F)F)c2F)c2cc(C3(C#N)CC3)c(NC3CCOCC3)nc2n1 [Compound 228, (R)-1-(4-((1-(3-(difluoromethyl)-2-fluorophenyl)ethyl)amino)-2-methyl-7-((tetrahydro-2H-pyran-4-yl)amino)pyrido[2,3-d]pyrimidin-6-yl)cyclopropane-1-carbonitrile] | 100 to 1000 | – |
| C[C@@H](Nc1ncnc2nc(O[C@H]3CCOC3)c(C3(C#N)CC3)cc12)c1cccc(C(F)F)c1F [Compound 230, 1-(4-(((R)-1-(3-(difluoromethyl)-2-fluorophenyl)ethyl)amino)-7-(((S)-tetrahydrofuran-3-yl)oxy)pyrido[2,3-d]pyrimidin-6-yl)cyclopropane-1-carbonitrile] | 100 to 1000 | – |
| COc1nc2nc(N3CC(N(C)C)C3)nc(N[C@H](C)c3cccc(C(F)F)c3F)c2cc1C1(C#N)CC1 [Compound 237, (R)-1-(4-((1-(3-(difluoromethyl)-2-fluorophenyl)ethyl)amino)-2-(3-(dimethylamino)azetidin-1-yl)-7-methoxypyrido[2,3-d]pyrimidin-6-yl)cyclopropane-1-carbonitrile] | 100 to 1000 | – |
| COc1nc2nc(OCC3CCOCC3)nc(N[C@H](C)c3cccc(C(F)F)c3F)c2cc1C1(C#N)CC1 [Compound 275, (R)-1-(4-((1-(3-(difluoromethyl)-2-fluorophenyl)ethyl)amino)-7-methoxy-2-((tetrahydro-2H-pyran-4-yl)methoxy)pyrido[2,3-d]pyrimidin-6-yl)cyclopropane-1-carbonitrile] | 100 to 1000 | – |

The remaining lines, values ahead:

| IC50 [1] [nM] | IC50 [2] [nM] | SMILES |
| --- | --- | --- |
| < 100 | – | COc1nc2nc(C)nc(N[C@H](C)c3cccc(C(F)F)c3F)c2cc1S(=O)(=O)N1CCN(C)CC1 [Compound 106, (R)—N-(1-(3-(difluoromethyl)-2-fluorophenyl)ethyl)-7-methoxy-2-methyl-6-((4-methylpiperazin-1-yl)sulfonyl)pyrido[2,3-d]pyrimidin-4-amine] |
| < 100 | – | Cc1nc(N[C@H](C)c2cccc(C(F)(F)F)c2F)c2cc(N3CCN(C(C)C)CC3)nnc2n1 [Compound 107, (R)—N-(1-(2-fluoro-3-(trifluoromethyl)phenyl)ethyl)-3-(4-isopropylpiperazin-1-yl)-7-methylpyrimido[4,5-c]pyridazin-5-amine] |
| < 100 | – | Cc1nc(N[C@H](C)c2cccc(C(F)F)c2F)c2cc(N3CCN(C(C)C)CC3)nnc2n1 [Compound 108, (R)—N-(1-(3-(difluoromethyl)-2-fluorophenyl)ethyl)-3-(4-isopropylpiperazin-1-yl)-7-methylpyrimido[4,5-c]pyridazin-5-amine] |
| < 100 | < 50 | COc1nc2nc(C)nc(N[C@H](C)c3cccc(C(F)F)c3F)c2cc1C1CCNCC1 [Compound 121, (R)—N-(1-(3-(difluoromethyl)-2-fluorophenyl)ethyl)-7-methoxy-2-methyl-6-(piperidin-4-yl)pyrido[2,3-d]pyrimidin-4-amine] |
| < 100 | < 50 | COc1nc2nc(C)nc(N[C@H](C)c3cccc(C(F)F)c3F)c2cc1C1CCN(C(=O)NC2CNC2)CC1 [Compound 122, (R)-N-(azetidin-3-yl)-4-(4-((1-(3-(difluoromethyl)-2-fluorophenyl)ethyl)amino)-7-methoxy-2-methylpyrido[2,3-d]pyrimidin-6-yl)piperidine-1-carboxamide] |
| < 100 | < 50 | COc1nc2nc(C)nc(N[C@H](C)c3cccc(C(F)F)c3F)c2cc1C1CCN(C(=O)NC2CN(C)C2)CC1 [Compound 124, (R)-4-(4-((1-(3-(difluoromethyl)-2-fluorophenyl)ethyl)amino)-7-methoxy-2-methylpyrido[2,3-d]pyrimidin-6-yl)-N-(1-methylazetidin-3-yl)piperidine-1-carboxamide] |
| < 100 | – | Cc1nc(N[C@H](C)c2cccc(C(F)F)c2F)c2cc(S(=O)(=O)C3CCN(C)CC3)c(C)nc2n1 [Compound 141, (R)-N-(1-(3-(difluoromethyl)-2-fluorophenyl)ethyl)-2,7-dimethyl-6-((1-methylpiperidin-4-yl)sulfonyl)pyrido[2,3-d]pyrimidin-4-amine] |
| 100 to 1000 | – | COc1nc2nc(N3CCC3)nc(N[C@H](C)c3cccc(C(F)F)c3F)c2cc1N1CCN(C(C)C)CC1 [Compound 168, (R)-2-(azetidin-1-yl)-N-(1-(3-(difluoromethyl)-2-fluorophenyl)ethyl)-6-(4-isopropylpiperazin-1-yl)-7-methoxypyrido[2,3-d]pyrimidin-4-amine] |
| < 100 | < 50 | Cc1nc(N[C@H](C)c2cccc(C(F)(F)F)c2C)c2cc(N3CCN(C(C)C)CC3)c(Cl)nc2n1 [Compound 201, (R)-7-chloro-6-(4-isopropylpiperazin-1-yl)-2-methyl-N-(1-(2-methyl-3-(trifluoromethyl)phenyl)ethyl)pyrido[2,3-d]pyrimidin-4-amine] |
| 100 to 1000 | – | COc1nc2nc(C)nc(N[C@H](C)c3cccc(C(F)(F)CCC4CN(C(=O)OC(C)(C)C)C4)c3F)c2cc1C1(C#N)CC1 [Compound 208, tert-butyl (R)-3-(3-(3-(1-((6-(1-cyanocyclopropyl)-7-methoxy-2-methylpyrido[2,3-d]pyrimidin-4-yl)amino)ethyl)-2-fluorophenyl)-3,3-difluoropropyl)azetidine-1-carboxylate] |
| < 100 | – | COc1nc2nc(C)nc(N[C@H](C)c3cccc(C(F)(F)C(C)(C)OC4CN(C(=O)OC(C)(C)C)C4)c3F)c2cc1N1CCN(C(C)C)CC1 [Compound 241, tert-butyl (R)-3-((1,1-difluoro-1-(2-fluoro-3-(1-((6-(4-isopropylpiperazin-1-yl)-7-methoxy-2-methylpyrido[2,3-d]pyrimidin-4-yl)amino)ethyl)phenyl)-2-methylpropan-2-yl)oxy)azetidine-1-carboxylate] |
| < 100 | < 50 | Cc1nc(N[C@H](C)c2cccc(C(F)F)c2F)c2cc(C3CCN(C)CC3)c(OC3COC3)nc2n1 [Compound 246, (R)-N-(1-(3-(difluoromethyl)-2-fluorophenyl)ethyl)-2-methyl-6-(1-methylpiperidin-4-yl)-7-(oxetan-3-yloxy)pyrido[2,3-d]pyrimidin-4-amine] |
| 100 to 1000 | – | Cc1nc(N[C@H](C)c2cccc3c2OC(C)(C)C3(F)F)c2cc(N3CCN(C(C)C)CC3)c(OCC3COC3)nc2n1 [Compound 274, (R)—N-(1-(3,3-difluoro-2,2-dimethyl-2,3-dihydrobenzofuran-7-yl)ethyl)-6-(4-isopropylpiperazin-1-yl)-2-methyl-7-(oxetan-3-ylmethoxy)pyrido[2,3-d]pyrimidin-4-amine] |
